pIC50: −log10 of the molar value.
How the values were obtained:
[1] = molecular target: T1, ATP-binding cassette sub-family C member 4 (Homo sapiens, UniProt O15439); test: Inhibition of human MRP4 overexpressed in Sf9 cell membrane vesicles assessed as uptake of [3H]-estradiol-17beta-D-glucuronide in presence of ATP and GSH measured after 20 mins by membrane vesicle transport assay; assay type: ADME, cell-based
T1 sequence (O15439 whole entry): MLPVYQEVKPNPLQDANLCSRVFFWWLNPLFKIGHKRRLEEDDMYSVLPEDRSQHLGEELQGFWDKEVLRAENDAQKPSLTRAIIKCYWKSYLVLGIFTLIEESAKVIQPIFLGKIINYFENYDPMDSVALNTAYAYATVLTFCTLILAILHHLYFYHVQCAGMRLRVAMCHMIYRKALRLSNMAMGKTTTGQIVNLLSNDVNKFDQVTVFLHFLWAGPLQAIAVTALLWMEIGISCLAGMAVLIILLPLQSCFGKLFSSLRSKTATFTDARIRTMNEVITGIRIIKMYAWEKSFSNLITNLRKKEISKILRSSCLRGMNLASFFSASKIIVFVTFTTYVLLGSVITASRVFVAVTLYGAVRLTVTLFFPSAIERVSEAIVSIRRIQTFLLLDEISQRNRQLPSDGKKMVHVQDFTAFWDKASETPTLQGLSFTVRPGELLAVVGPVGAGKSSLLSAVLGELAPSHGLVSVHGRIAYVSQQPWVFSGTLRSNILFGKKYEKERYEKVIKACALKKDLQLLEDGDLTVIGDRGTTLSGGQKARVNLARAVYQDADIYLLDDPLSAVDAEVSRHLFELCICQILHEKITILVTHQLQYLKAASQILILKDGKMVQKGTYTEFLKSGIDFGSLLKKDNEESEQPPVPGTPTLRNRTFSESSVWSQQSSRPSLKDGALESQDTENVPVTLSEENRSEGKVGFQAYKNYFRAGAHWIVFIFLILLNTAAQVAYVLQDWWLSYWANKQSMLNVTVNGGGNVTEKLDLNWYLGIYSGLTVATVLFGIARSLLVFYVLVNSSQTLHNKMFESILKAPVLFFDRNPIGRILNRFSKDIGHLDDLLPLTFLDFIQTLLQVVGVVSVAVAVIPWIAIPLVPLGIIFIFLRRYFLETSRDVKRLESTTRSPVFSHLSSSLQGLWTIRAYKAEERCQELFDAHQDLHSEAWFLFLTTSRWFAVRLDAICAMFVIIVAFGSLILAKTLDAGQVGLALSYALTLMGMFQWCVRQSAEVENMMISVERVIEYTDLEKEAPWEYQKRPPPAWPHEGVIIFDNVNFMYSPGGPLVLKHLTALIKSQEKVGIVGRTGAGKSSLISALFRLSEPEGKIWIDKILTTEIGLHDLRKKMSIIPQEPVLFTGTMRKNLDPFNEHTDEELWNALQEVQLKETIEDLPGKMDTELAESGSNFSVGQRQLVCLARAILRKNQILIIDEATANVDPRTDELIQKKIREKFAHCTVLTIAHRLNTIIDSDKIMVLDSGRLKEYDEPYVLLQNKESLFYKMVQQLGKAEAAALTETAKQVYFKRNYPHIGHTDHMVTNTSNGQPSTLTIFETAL

[2] = molecular target: ATP-binding cassette sub-family C member 2 (Homo sapiens, UniProt Q92887); test: Inhibition of human MRP2 overexpressed in Sf9 cell membrane vesicles assessed as uptake of [3H]-estradiol-17beta-D-glucuronide in presence of ATP and GSH measured after 20 mins by membrane vesicle transport assay
ATP-binding cassette sub-family C member 2, sequence (Q92887 whole entry): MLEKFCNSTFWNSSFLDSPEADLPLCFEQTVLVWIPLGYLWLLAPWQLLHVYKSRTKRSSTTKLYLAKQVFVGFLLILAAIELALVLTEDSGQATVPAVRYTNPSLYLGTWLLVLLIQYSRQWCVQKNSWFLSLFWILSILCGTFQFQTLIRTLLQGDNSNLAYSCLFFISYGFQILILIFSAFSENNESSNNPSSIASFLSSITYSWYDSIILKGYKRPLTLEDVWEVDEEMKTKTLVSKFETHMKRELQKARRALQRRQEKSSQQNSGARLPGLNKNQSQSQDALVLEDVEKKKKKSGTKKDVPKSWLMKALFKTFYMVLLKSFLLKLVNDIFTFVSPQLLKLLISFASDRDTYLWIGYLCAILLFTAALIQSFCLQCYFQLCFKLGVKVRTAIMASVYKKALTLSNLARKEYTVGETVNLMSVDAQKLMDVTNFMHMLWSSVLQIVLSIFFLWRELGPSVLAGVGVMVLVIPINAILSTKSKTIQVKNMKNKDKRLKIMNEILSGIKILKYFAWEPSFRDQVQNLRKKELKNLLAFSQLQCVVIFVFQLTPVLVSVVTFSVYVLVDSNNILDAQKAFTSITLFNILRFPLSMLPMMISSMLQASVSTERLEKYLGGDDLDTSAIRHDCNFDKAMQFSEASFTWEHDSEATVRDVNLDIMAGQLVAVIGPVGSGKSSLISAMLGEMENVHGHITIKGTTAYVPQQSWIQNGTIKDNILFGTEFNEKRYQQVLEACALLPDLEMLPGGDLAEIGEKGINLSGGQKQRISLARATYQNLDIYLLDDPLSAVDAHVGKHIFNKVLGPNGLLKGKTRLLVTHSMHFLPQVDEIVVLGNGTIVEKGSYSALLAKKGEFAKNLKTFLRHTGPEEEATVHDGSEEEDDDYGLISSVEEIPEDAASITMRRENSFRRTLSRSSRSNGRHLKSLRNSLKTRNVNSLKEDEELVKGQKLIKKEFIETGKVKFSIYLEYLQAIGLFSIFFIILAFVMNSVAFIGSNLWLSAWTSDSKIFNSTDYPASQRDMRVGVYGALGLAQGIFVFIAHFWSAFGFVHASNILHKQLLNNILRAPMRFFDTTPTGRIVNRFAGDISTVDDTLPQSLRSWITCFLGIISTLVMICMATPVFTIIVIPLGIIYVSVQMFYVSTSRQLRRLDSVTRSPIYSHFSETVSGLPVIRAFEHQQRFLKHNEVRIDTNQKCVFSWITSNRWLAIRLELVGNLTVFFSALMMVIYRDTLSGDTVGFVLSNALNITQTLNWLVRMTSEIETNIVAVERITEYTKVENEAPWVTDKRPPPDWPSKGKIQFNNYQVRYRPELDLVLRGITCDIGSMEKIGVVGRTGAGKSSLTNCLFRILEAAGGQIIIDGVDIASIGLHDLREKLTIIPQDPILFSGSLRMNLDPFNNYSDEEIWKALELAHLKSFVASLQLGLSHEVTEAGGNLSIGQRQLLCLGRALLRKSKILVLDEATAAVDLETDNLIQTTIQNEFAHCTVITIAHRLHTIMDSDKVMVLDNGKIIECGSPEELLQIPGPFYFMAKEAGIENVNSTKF

[3] = AUC in human at 30 to 60 mg, po QD after 24 hrs; assay type: ADME, organism-based; settings: in vivo
[4] = molecular target: ATP-binding cassette sub-family C member 3 (Homo sapiens, UniProt O15438); test: Inhibition of human MRP3 overexpressed in Sf9 insect cell membrane vesicles assessed as uptake of [3H]-estradiol-17beta-D-glucuronide in presence of ATP and GSH measured after 10 mins by membrane vesicle transport assay; assay type: ADME, cell-based
ATP-binding cassette sub-family C member 3, sequence (O15438 whole entry): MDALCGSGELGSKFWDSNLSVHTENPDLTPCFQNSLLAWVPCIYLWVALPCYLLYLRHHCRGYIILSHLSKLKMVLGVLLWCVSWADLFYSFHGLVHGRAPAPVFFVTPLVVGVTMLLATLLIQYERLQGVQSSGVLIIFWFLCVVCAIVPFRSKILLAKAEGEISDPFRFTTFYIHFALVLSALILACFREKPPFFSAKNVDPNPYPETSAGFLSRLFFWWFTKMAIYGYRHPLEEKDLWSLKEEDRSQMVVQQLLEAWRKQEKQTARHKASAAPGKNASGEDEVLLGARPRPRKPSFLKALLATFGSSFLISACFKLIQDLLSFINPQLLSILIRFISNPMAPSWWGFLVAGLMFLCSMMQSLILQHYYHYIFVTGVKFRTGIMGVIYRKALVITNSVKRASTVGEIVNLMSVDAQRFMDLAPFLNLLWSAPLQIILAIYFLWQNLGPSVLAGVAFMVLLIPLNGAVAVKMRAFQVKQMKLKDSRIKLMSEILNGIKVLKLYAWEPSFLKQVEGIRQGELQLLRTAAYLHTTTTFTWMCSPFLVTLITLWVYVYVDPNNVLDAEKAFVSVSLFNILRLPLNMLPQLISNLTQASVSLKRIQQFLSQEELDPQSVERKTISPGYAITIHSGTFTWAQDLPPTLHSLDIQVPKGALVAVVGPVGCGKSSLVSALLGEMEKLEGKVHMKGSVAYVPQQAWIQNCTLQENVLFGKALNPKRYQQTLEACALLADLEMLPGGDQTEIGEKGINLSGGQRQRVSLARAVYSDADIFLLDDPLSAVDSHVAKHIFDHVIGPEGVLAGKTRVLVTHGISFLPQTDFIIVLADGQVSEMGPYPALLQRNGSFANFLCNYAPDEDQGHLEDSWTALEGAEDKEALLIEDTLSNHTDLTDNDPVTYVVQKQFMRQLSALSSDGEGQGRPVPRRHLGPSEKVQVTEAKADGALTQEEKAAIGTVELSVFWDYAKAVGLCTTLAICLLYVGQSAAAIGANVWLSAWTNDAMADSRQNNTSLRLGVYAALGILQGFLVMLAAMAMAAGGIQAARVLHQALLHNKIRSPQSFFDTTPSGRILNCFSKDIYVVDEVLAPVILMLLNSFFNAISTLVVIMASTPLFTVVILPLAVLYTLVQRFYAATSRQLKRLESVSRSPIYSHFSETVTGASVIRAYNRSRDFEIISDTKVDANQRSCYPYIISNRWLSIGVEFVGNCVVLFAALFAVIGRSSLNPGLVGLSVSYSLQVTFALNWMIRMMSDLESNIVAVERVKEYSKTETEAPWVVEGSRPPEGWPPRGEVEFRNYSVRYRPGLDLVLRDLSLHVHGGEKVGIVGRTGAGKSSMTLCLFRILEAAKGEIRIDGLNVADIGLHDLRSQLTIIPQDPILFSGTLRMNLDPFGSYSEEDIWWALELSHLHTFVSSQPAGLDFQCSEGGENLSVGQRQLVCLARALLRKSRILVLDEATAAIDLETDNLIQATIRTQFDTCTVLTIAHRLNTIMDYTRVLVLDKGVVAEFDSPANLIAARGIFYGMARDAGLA

[5] = AUC in human at 0.35 mg, po QD after 24 hrs; assay type: ADME, organism-based; set-up: time < 24 hr, dose 0.35 mg, route oral; settings: in vivo
[6] = Ratio of drug concentration at steady state in human at 0.35 mg, po QD after 24 hrs to IC50 for human BSEP overexpressed in Sf9 insect cells; assay type: ADME, organism-based; settings: in vivo
[7] = Drug concentration at steady state in human at 0.35 mg, po QD after 24 hrs; assay type: ADME, organism-based; settings: in vivo, read-out: Css
Bile salt export pump = Bile salt export pump (Homo sapiens, UniProt O95342); test: Inhibition of human BSEP overexpressed in Sf9 cell membrane vesicles assessed as uptake of [3H]-taurocholate in presence of ATP measured after 15 to 20 mins by membrane vesicle transport assay; assay type: ADME, cell-based
Bile salt export pump, sequence (O95342 whole entry): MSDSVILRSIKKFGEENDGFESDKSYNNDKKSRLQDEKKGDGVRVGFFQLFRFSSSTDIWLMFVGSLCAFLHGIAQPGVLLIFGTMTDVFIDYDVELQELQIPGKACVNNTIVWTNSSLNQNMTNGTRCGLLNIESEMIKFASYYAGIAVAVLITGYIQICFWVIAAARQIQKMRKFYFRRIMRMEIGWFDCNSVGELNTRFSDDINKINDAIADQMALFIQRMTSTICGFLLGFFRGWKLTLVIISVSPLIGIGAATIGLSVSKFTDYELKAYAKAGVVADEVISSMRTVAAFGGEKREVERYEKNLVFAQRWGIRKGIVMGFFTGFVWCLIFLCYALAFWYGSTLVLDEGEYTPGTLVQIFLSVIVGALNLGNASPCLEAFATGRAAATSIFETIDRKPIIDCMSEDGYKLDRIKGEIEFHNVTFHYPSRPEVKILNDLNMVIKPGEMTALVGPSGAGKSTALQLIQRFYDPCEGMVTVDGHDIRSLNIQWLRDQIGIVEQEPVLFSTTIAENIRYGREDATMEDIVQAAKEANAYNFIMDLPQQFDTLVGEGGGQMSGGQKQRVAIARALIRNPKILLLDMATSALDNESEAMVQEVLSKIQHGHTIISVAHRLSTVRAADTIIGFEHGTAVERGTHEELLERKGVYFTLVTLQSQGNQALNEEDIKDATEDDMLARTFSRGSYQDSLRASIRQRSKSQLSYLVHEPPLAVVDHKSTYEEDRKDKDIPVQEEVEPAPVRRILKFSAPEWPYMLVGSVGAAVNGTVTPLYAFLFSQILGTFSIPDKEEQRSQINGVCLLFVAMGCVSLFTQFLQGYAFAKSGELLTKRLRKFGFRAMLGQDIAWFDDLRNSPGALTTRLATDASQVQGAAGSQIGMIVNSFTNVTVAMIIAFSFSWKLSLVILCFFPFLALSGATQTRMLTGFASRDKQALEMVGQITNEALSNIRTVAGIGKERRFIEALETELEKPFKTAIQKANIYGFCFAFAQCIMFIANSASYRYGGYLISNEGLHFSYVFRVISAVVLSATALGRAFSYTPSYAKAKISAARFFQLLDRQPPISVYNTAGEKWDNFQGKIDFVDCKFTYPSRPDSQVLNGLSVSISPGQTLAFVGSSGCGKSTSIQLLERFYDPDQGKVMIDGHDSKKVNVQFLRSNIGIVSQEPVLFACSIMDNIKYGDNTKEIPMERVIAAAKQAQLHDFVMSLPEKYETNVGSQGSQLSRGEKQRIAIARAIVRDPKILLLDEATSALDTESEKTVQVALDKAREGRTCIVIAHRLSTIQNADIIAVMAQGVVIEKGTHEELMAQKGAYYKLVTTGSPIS

[8] = AUC in human at 10 to 80 mg, po QD after 24 hrs; assay type: ADME, organism-based; settings: in vivo
clinical = settings: human, in vivo, po
Description: Drug concentration at steady state in human at 10 to 80 mg, po QD after 24 hrs

[9] = Drug concentration at steady state in human at 20 to 80 mg, po QD after 24 hrs; assay type: ADME, organism-based; settings: in vivo, read-out: Css
[10] = Ratio of drug concentration at steady state in human at 20 to 80 mg, po QD after 24 hrs to IC50 for human BSEP overexpressed in Sf9 insect cells; assay type: ADME, organism-based; settings: in vivo
[11] = Ratio of drug concentration at steady state in human at 20 to 80 mg, po QD after 24 hrs to IC50 for human MRP3 overexpressed in Sf9 insect cells; assay type: ADME, organism-based; settings: in vivo
[12] = Ratio of drug concentration at steady state in human at 20 to 80 mg, po QD after 24 hrs to IC50 for human MRP4 overexpressed in Sf9 insect cells; assay type: ADME, organism-based; settings: in vivo
[13] = AUC in human at 20 to 80 mg, po QD after 24 hrs; assay type: ADME, organism-based; settings: in vivo
[14] = Ratio of drug concentration at steady state in human at 0.5 to 4 mg, po BID/TID/QID after 6 hrs to IC50 for human MRP3 overexpressed in Sf9 insect cells; assay type: ADME, organism-based; settings: in vivo
[15] = Ratio of drug concentration at steady state in human at 0.5 to 4 mg, po BID/TID/QID after 6 hrs to IC50 for human MRP2 overexpressed in Sf9 insect cells; assay type: ADME, organism-based; settings: in vivo
[16] = Ratio of drug concentration at steady state in human at 0.5 to 4 mg, po BID/TID/QID after 6 hrs to IC50 for human BSEP overexpressed in Sf9 insect cells; assay type: ADME, organism-based; settings: in vivo
[17] = Ratio of drug concentration at steady state in human at 0.5 to 4 mg, po BID/TID/QID after 6 hrs to IC50 for human MRP4 overexpressed in Sf9 insect cells; assay type: ADME, organism-based; settings: in vivo
[18] = AUC in human at 0.5 to 4 mg, po BID/TID/QID after 6 hrs; assay type: ADME, organism-based; settings: in vivo
[19] = Drug concentration at steady state in human at 0.5 to 4 mg, po BID/TID/QID after 6 hrs; assay type: ADME, organism-based; settings: in vivo, read-out: Css

Row | Compound | pIC50 [1] | pIC50 [2] | pIC50 [4] | pIC50 (Bile salt export pump) | other results
1 | COC(=O)C1=C(C)NC(C)=C(C(=O)OC)C1c1ccccc1[N+](=O)[O-] [NIFEDIPINE] | 4.78 | < 3.88 | < 3.88 |  | AUC at 24 h [3]: 3.48 µM·h
2 | CCCc1nc2c(C)cc(-c3nc4ccccc4n3C)cc2n1Cc1ccc(-c2ccccc2C(=O)O)cc1 | 4.44 | < 3.88 | 4.22 |  | concentration at 24 h [9]: 149 nM; Ratio [10]: 0.009; Ratio [11]: 0.002; Ratio [12]: 0.004; AUC at 24 h [13]: 3.57 µM·h
3 | CCOc1cc(CC(=O)N[C@@H](CC(C)C)c2ccccc2N2CCCCC2)ccc1C(=O)O [REPAGLINIDE] | 4.27 | 4.14 | 4.78 | 4.66 | Ratio [14]: 0.001; Ratio [15]: 0; Ratio [16]: 0.00075; Ratio [17]: 0; AUC at 6 h [18]: 0.099 µM·h; concentration at 6 h [19]: 16 nM

More lines, main results first:

Row | pIC50 [1] | pIC50 [2] | pIC50 [4] | Compound | pIC50 (Bile salt export pump) | other results
4 | < 3.88 | < 3.88 | < 3.88 | C#C[C@@]1(OC(C)=O)CC[C@H]2[C@@H]3CCC4=CC(=O)CC[C@@H]4[C@H]3CC[C@@]21C | 4.44 | AUC at 24 h [5]: 0.494 µM·h; Ratio [6]: 0.00057; concentration at 24 h [7]: 21 nM
5 | < 3.88 | < 3.88 | < 3.88 | CC[C@H](C)C(=O)O[C@H]1C[C@@H](C)C=C2C=C[C@H](C)[C@H](CC[C@@H]3C[C@@H](O)CC(=O)O3)[C@H]21 [LOVASTATIN] | 4.71 | AUC at 24 h [8]: 0.238 µM·h; concentration at 24 h (clinical): 10 nM

— ChEMBL document CHEMBL4028801, “A multifactorial approach to hepatobiliary transporter assessment enables improved therapeutic compound development” (Toxicol Sci, 2013)
